Measurements from patent US20160272709A1, “ANTI-KIR ANTIBODIES” (The Regents of the University of Michigan, priority 2015, published 2016).

Key:
CD4^+KIR^+NK1.1^− cells [1] = assay: Flow cytometry (6G10) of KIR on murine T cells treated with 5-azaC; assay type: cell-based
KIRL1 mRNA = KIRL1 mRNA relative to GAPDH by RT-PCR in CD4+ T cells from 5-azaC treated splenocytes; assay type: cell-based, murine; settings: ConA-stimulated splenocytes, n=4, p=0.038
Description: FIGS. 2A-B. (A) Murine splenocytes were stimulated with […], treated or not with 5-azaC, then KirL1 mRNA was measured in CD4^+ T cells relative to GAPDH by RT-PCR. (B) Double transgenic mice were given Dox or not in their drinking water, then KirL1 mRNA measured in CD4+ splenocytes as in panel A.
(§1) To test if the mouse T cell KIR genes are also activated by DNA methylation inhibition, murine splenocytes were stimulated with ConA, treated with 5-azaC, and KIRL1 mRNA measured relative to GAPDH by RT-PCR in CD4+ T cells bead purified by negative selection to remove NK and other non-CD4+ T cells.

CD3^+CD4^+CD28^+ T cells = assay: KIR and CD11a expression on PHA-stimulated, 5-azaC treated PBMC (flow cytometry); assay type: cell-based, human
Description: FIGS. 11A-D. 5-Azacytidine treatment of PHA-stimulated PBMC induces the expression of KIR proteins on a subset of CD4^+CD28^+CD11a^hi T cells. PBMC were stimulated for 18-24 hrs with PHA followed by treatment with 2.5 μM 5-azacytidine or saline for 72 hrs. The cells were then stained with fluorochrome-conjugated antibodies to methylation-sensitive gene products, fixed and analyzed by flow cytometry as described in Methods. Gating was established to select CD3^+CD4^+CD28^+ T cells. The CD3^+CD4^+CD28^+ T cells were then analyzed for CD11a and KIR using a cocktail of 5 PE-conjugated anti-KIR antibodies and imaged on a FACS Synergy flow cytometer. (A), Untreated T cells. (B), 5-azaC treated T cells. (C), 5-azaC treated PBMC stained only with the cocktail of anti-KIR antibodies. (D), 5-azaC treated T cells stained with antibodies to CD3, CD4, CD28, CD11a, CD70 and CD40L but not KIR. The figure shown is representative of 9 separate cultures.
The expression of methylation-sensitive genes was analyzed in 5-azaC treated cells from healthy women. PBMCs from a healthy […] were stimulated with PHA then cultured with or without 5-azaC. Seventy-two hours later the cells were washed, stained with fluorochromeconjugated antibodies to CD3, CD4, CD28, CD11a, CD70 and CD40L with and without a “cocktail” of PE conjugated antibodies to 5 distinct KIR proteins then analyzed by flow cytometry as outlined in FIG. 10. […]
In the absence of treatment with the demethylating agent 5-azaC very few KIR+ cells were observed (FIG. 11A). […] Further, CD11a expression on the majority (>70%) of the KIR^+CD3^+CD4^+CD28^+ cells treated with 5-azaC (FIG. 11B, rectangle) was nearly twice that of the corresponding KIR− T cells (FIG. 11B, circle) from the same cultures (median fluorescence intensity 2298+/−748 SD, versus 1394+/−572, respectively, n=9 analyzed in 7 different experiments, p<0.001). […]

[2] = lupus patients; cited from earlier work
CD4^+KIR^+NK1.1^− cells [3] = assay: Flow cytometry (6G10) of KIR on CD4+ splenocytes of tet-on dnMEK transgenic mice receiving dox; assay type: in vivo
Description: FIGS. 3A-B.) Double transgenic mice were given Dox (B) or not (A) in their drinking water, then KirL1 expression was measured on CD4+ splenocytes by flow cytometry.
as §1

[4] = tested on: CD4^+KIRL1^+CD11a^hiCD40L^+ subset; assay: Multicolor flow cytometry of splenocytes of SJL mice given dox for 6 weeks; assay type: in vivo; settings: dox 6 weeks; controls 0.007%
Description: SJL mice were given dox for 6 weeks, sacrificed, then splenocytes stained with Pacific Blue-CD3; FITC-CD8; PE-CD40L; PE-Cy5-CD4; Avidin-APC-Cy7/biotin-KIRL1; PERCP-Cy5.5-CD11a. Mice receiving dox developed a CD4^+KIRL1^+CD11a^hiCD40L^+ subset that resembles the human lupus subset shown in FIG. 1, and represented 1.09% of the total CD11a+ cells, while controls had only 0.007% CD4^+KIRL1^+CD11a^hiCD40L^+ cells.

## Nc1ncn([C@@H]2O[C@H](CO)[C@@H](O)[C@H]2O)c(=O)n1 [5-azaC, 5-azacytidine]
CD4^+KIR^+NK1.1^− cells [1]
  increase in CD4^+KIR^+NK1.1^− cells: 3.1 fold
KIRL1 mRNA
  KIRL1 mRNA relative to GAPDH: overexpressed KIRL1 mRNA
CD3^+CD4^+CD28^+ T cells; 2.5 μM 5-azaC 72 hrs after PHA
  numbers of KIR+ cells: increases the numbers of KIR+ cells
CD3^+CD4^+CD28^+ T cells; 5-azaC treated cultures, SD, n=9, p<0.001 vs KIR− cells
  CD11a median fluorescence intensity on KIR^+CD3^+CD4^+CD28^+ cells: 2298+/−748
CD3^+CD4^+CD28^+ T cells; same 5-azaC treated cultures, SD, n=9
  CD11a median fluorescence intensity on corresponding KIR− T cells: 1394+/−572

## CC(=O)N[C@@H](CS)C(=O)O [N-acetylcysteine]
[2]
  flare severity: decreases flare severity

## C[C@H]1c2cccc(O)c2C(=O)C2=C(O)[C@]3(O)C(=O)C(C(N)=O)=C(O)[C@@H](N(C)C)[C@@H]3[C@@H](O)[C@@H]21 [dox, doxycycline]
CD4^+KIR^+NK1.1^− cells [3]; tet-on mouse with higher KIR expression, FIGS. 3A-B
  KIR expression, % of total CD4+ T cells: 3.9%
CD4^+KIR^+NK1.1^− cells [3]; transgenic mice receiving dox
  increase in CD4^+KIR^+NK1.1^− cells: 5.7 fold
[4]
  CD4^+KIRL1^+CD11a^hiCD40L^+ subset, % of total CD11a+ cells: 1.09%
